The values that follow come from ChEMBL document CHEMBL1201862, “PubChem BioAssay data set” (2004).

Each structure is given as a SMILES string.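 Each compound was tested at five concentrations against cells in 96-well plates for 48 hours. The concentration for 50% growth inhibition is given as GI50.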 Active and inactive are the calls of the source. Rule as the data show it: active = GI50 up to about 1.1 µM and inactive = higher.

Among the test systems are HT-29; HOP-92; SK-MEL-28; OVCAR-4; UACC-257; Hs-578T; ACHN; RPMI-8226; TK-10; UO-31; IGROV-1; LOX IMVI; HOP-62; HCT-116; NCI-H522; PC-3; NCI-H23; CCRF-CEM; RXF 393; HL-60.
Test in all cases: inhibition of tumour cell growth, NCI panel, 48 h

Take `CCC1C(=O)OCc2c1cc1n(c2=O)Cc2cc3ccccc3nc2-1` (stereo not given): the GI50 was 29.5 µM (inactive) in the assay on HT-29; 13.1 µM (inactive) with HOP-92; 13.2 µM (inactive) with SK-MEL-28; > 81.8 µM (inactive) in the assay with OVCAR-4; 50.7 µM (inactive) in the assay on UACC-257; > 54.3 µM (inactive) in the assay with Hs-578T. The GI50 is 3.28 µM (inactive) in the assay with ACHN; 12.4 µM (inactive) in the assay with RPMI-8226; > 100 µM (inactive) in the assay on TK-10; 2.37 µM (inactive) in the assay on UO-31; 17.6 µM (inactive) in the assay on IGROV-1; 3.78 µM (inactive) with LOX IMVI. In addition, the GI50 was 2.08 µM (inactive) with HOP-62; 8.41 µM (inactive) in the assay on HCT-116; 7.73 µM (inactive) in the assay on NCI-H522; 15.4 µM (inactive) in the assay with PC-3; 2.84 µM (inactive) in the assay on NCI-H23; 0.377 µM (active) with CCRF-CEM. For the same compound, the GI50 was 23.8 µM (inactive) in the assay on RXF 393 and 1.88 µM (inactive) with HL-60.

On to `Cc1ccc2c(ccc(/C=C/c3ccc(O)c4ncccc34)[n+]2C)c1`, for which the GI50 in the assay with HT-29 was 12.2 µM (inactive); with HOP-92 it was 14.7 µM (inactive); in the assay with SK-MEL-28, 10.3 µM (inactive); with OVCAR-4, 5.09 µM (inactive); in the assay with UACC-257 it was 8.04 µM (inactive); in the assay with Hs-578T, > 100 µM (inactive). Besides, the GI50 in the assay with ACHN was 10 µM (inactive); in the assay on RPMI-8226, 13.9 µM (inactive); in the assay with TK-10, 15.6 µM (inactive); with UO-31, > 33.9 µM (inactive); with IGROV-1, 15.8 µM (inactive); in the assay with LOX IMVI, 2.96 µM (inactive). Besides, the GI50 is 6.85 µM (inactive) in the assay with HOP-62; 3.87 µM (inactive) in the assay with HCT-116; 3.64 µM (inactive) in the assay with NCI-H522; > 25.3 µM (inactive) in the assay on PC-3; 11 µM (inactive) with NCI-H23; 2.42 µM (inactive) in the assay on CCRF-CEM. Also, the GI50 is 16.3 µM (inactive) with RXF 393 and 19.5 µM (inactive) in the assay on HL-60.

For `CC1(C)CCCCCCCCCC2CC2CCC(C)(C)C1=O` (stereo not given), the GI50 in the assay on HT-29 is 20.3 µM (inactive); with HOP-92, 26.3 µM (inactive); in the assay on SK-MEL-28, 25.9 µM (inactive); with OVCAR-4 it was 32.9 µM (inactive); in the assay on UACC-257 it was 23.6 µM (inactive); with Hs-578T, 31.3 µM (inactive). Further, the GI50 in the assay on ACHN is 19.1 µM (inactive); in the assay on RPMI-8226 it was 24 µM (inactive); in the assay on TK-10 it was 22.9 µM (inactive); with UO-31, 19.6 µM (inactive); with IGROV-1, 41.3 µM (inactive); in the assay on LOX IMVI, 19 µM (inactive). Also, the GI50 with HOP-62 was 21.8 µM (inactive); in the assay on HCT-116 it was 16.6 µM (inactive); with NCI-H522, 15.6 µM (inactive); with PC-3, 28.8 µM (inactive); in the assay on NCI-H23, 40.5 µM (inactive); in the assay with CCRF-CEM, 21.6 µM (inactive). For the same compound, the GI50 is 15.4 µM (inactive) in the assay with RXF 393 and 22 µM (inactive) in the assay on HL-60.

For `COC(=O)C1CC23C4=C(CCC41)CCC1CN4CC(C)C(CC(OC(C)=O)C12COC(C)=O)C43O` (stereo not given), the GI50 with HT-29, in the assay with HOP-92, in the assay with SK-MEL-28, in the assay on OVCAR-4, in the assay on UACC-257 and with Hs-578T was > 100 µM (inactive) each time. The GI50 in the assay on ACHN, in the assay with RPMI-8226, in the assay on TK-10, in the assay with UO-31, in the assay on IGROV-1 and with LOX IMVI was > 100 µM (inactive) in each case. For the same compound, the GI50 in the assay on HOP-62, in the assay on HCT-116, in the assay with NCI-H522, in the assay with PC-3, in the assay with NCI-H23 and with CCRF-CEM was > 100 µM (inactive) in each case. Moreover, the GI50 in the assay with RXF 393 and with HL-60 was > 100 µM (inactive) in each case.

In the case of `CC(CO)CCNc1ncnc2c1ncn2CCC(=O)OC(C)(C)C` (stereo not given), the GI50 with HT-29, in the assay on HOP-92, in the assay on SK-MEL-28, with OVCAR-4, in the assay on UACC-257 and in the assay with Hs-578T was > 100 µM (inactive) in each case. The GI50 in the assay with ACHN, with RPMI-8226, in the assay with TK-10, in the assay with UO-31, in the assay with IGROV-1 and in the assay with LOX IMVI was > 100 µM (inactive) in each case. Besides, the GI50 in the assay with HOP-62, with HCT-116, in the assay with NCI-H522, in the assay with PC-3, with NCI-H23 and with CCRF-CEM was > 100 µM (inactive) throughout. For the same compound, the GI50 with RXF 393 and with HL-60 was > 100 µM (inactive) in each case.

As to `Cc1nc(C)c(N2CCN(CN)CC2)c(O)n1`, the GI50 in the assay with HT-29, in the assay on HOP-92, with SK-MEL-28, in the assay with OVCAR-4, in the assay on UACC-257 and in the assay with Hs-578T was > 100 µM (inactive) in each case. For the same compound, the GI50 with ACHN, in the assay with RPMI-8226, in the assay on TK-10, in the assay on UO-31, with IGROV-1 and with LOX IMVI was > 100 µM (inactive) in each case. Also, the GI50 in the assay with HOP-62, with HCT-116, in the assay with NCI-H522, with PC-3, in the assay on NCI-H23 and with CCRF-CEM was > 100 µM (inactive) each time. Besides, the GI50 with RXF 393 and in the assay on HL-60 was > 100 µM (inactive) in each case.

With `OCC1CCC(n2cnc3c(O)ncnc32)O1` (stereo not given), the GI50 in the assay with HT-29 is > 100 µM (inactive); in the assay on HOP-92 it was > 100 µM (inactive); in the assay on SK-MEL-28, > 100 µM (inactive); with OVCAR-4, > 100 µM (inactive); in the assay with UACC-257, > 87.9 µM (inactive); in the assay with Hs-578T, > 1000 µM (inactive). Moreover, the GI50 in the assay with ACHN was > 1000 µM (inactive); in the assay on RPMI-8226, > 100 µM (inactive); in the assay with TK-10, > 1000 µM (inactive); with UO-31, 502 µM (inactive); with IGROV-1 it was > 100 µM (inactive); in the assay on LOX IMVI, > 100 µM (inactive). Further, the GI50 in the assay with HOP-62 is > 100 µM (inactive); with HCT-116, > 100 µM (inactive); in the assay on NCI-H522 it was > 100 µM (inactive); with PC-3, > 1000 µM (inactive); in the assay on NCI-H23, > 100 µM (inactive); with CCRF-CEM, > 100 µM (inactive). For the same compound, the GI50 in the assay with RXF 393 and in the assay with HL-60 was > 100 µM (inactive) each time.
